{
  "source": "patent US10766866B2",
  "about": "“Deterrents for arthropods and marine organisms” (priority 2017, dated 2020)",
  "key": {"[1]": {"molecular_target": "T1, AgAOctR (Anopheles octopamine receptor isoform A), cloned α-like OctR (Anopheles gambiae, UniProt Q7PRZ8)", "T1 construct": "Gq calcium readout", "T1 sequence (Q7PRZ8 1-592)": "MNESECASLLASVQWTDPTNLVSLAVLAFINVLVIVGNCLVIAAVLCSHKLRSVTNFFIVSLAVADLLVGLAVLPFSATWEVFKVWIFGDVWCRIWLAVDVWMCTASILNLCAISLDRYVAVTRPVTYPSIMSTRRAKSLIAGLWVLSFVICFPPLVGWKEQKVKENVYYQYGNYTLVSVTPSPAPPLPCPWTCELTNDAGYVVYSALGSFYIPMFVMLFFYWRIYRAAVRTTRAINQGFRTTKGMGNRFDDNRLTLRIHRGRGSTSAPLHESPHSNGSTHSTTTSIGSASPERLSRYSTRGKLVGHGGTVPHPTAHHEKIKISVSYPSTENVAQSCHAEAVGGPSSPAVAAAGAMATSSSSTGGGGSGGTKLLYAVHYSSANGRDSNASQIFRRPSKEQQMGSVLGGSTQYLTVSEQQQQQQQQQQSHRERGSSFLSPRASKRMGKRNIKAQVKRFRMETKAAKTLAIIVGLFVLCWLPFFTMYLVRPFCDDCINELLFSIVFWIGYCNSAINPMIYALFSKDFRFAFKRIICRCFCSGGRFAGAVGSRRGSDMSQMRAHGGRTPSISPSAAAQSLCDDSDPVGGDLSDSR", "assay": "OctR activation: change in intracellular calcium (CALCIUM 6QR dye, FlexStation 3) in stably transfected mammalian cells", "type": "cell-based", "conditions": "agonist", "from_the_text": "(§1) Functional expression of cloned arthropod OctRs and human α2-ARs: The cDNAs for α-like OctRs from different arthropod species (e.g., Anopheles gambiae, Aedes aegypti, Periplaneta americana, Drosophila melanogaster, Ixodes scapularis, Balanus improvises) and for α2-AR subtypes from humans were individually subcloned into mammalian expression vectors. These plasmids, which harbor a resistance gene for the selection drug G418 and the cDNA sequence for the receptor of interest, were individually transfected into mammalian cells using a calcium phosphate precipitation method. G418 selection was then employed to generated stable clonal cell lines. Utilizing rapid filtration radioligand binding techniques, the cell surface density of receptor expression of the individual clonal cell lines was determined at equilibrium and those with similar high levels of expression were selected for further experiments. Briefly, binding conditions were 50 mM Tris binding buffer pH 7.4 at 25° C. and an ice-cold wash buffer 10 mM Tris-HCl, pH 7.4). The radioligand was [3H]rauwolscine and non-specific binding was determined in the presence of 10 μM atipamezole. Following the addition of membranes prepared from the clonal cell lines, samples were mixed and allowed 2 hr. to reach equilibrium before rapid filtration and washing through 0.3% PEI-treated GF/C filters. The radioactivity remaining on the filters was quantified by scintillation counting. Receptor density (Bmax) was back calculated knowing the specific activity of the radioligand and applying the equation for a square hyperbola model: Bmax=(Y·(KD+X))/X, where Y is [specifically bound radioligand] and X=[radio ligand concentration]. The affinity (KD) for the radioligand for each receptor was determined in separate saturation isotherm binding experiments using the same binding conditions as describe above.\n(§2) Measurement of OctR activation by measuring changes in intracellular calcium: Activation of arthropod α-like OctRs increases intracellular calcium via a Gq-coupling mechanism. This involves activation of phospholipase C leading to an increase in intracellular inositol triphosphate (IP3) which then activates IP3-gated calcium channels in the endoplasmic reticulum causing a transient rise in intracellular calcium. These changes in intracellular calcium upon OctR activation were measured by loading cells with intracellular calcium sensitive dye CALCIUM 6QR and reading the change in calcium-induced fluorescent signal over time on a FlexStation 3 microplate reader."}, "[2]": {"molecular_target": "T2, human α2C adrenergic receptor (α2c-AR) (Homo sapiens, UniProt P18825)", "T2 construct": "expressed in transfected cells", "T2 sequence (P18825 1-462)": "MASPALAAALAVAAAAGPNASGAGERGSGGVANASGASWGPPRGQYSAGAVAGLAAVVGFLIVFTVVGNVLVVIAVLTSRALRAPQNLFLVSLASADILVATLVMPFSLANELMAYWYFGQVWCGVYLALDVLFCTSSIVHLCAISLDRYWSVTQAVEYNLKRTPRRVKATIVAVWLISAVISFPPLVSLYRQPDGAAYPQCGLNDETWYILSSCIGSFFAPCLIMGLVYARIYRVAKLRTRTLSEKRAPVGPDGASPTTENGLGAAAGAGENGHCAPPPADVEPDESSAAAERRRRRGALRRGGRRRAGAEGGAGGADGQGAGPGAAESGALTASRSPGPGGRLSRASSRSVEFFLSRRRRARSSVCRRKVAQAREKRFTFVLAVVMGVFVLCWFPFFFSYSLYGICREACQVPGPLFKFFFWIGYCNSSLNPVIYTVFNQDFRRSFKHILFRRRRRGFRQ", "assay": "Intracellular cyclic AMP (cAMP-Glo) functional assay, stably transfected mammalian cells", "type": "cell-based", "from_the_text": "as §1, with “Briefly, binding conditions were 50 mM Tris binding buffer pH 7.4 at 25° C. and an ice-cold wash buffer 10 mM Tris-HCl, pH 7.4).” left out, “Following the addition of membranes prepared from the clonal cell lines, samples were mixed and allowed 2 hr. to reach equilibrium before rapid filtration and washing through 0.3% PEI-treated GF/C filters.” left out, “The affinity (KD) for the radioligand for each receptor was determined in separate saturation isotherm binding experiments using the same binding conditions as describe above.” left out"}, "[3]": {"system": "AeOctR (Aedes octopamine receptor), cloned α-like OctR", "assay": "OctR activation: change in intracellular calcium (CALCIUM 6QR dye, FlexStation 3) in stably transfected mammalian cells", "type": "cell-based, Aedes aegypti", "conditions": "agonist", "from_the_text": "as §1, §2"}, "[4]": {"molecular_target": "T3, Hsα2C-AR (human α2C adrenergic receptor) (Homo sapiens, UniProt P18825)", "T3 construct": "expressed in transfected cells", "T3 sequence (P18825 1-462)": "T2 sequence (P18825 1-462)", "assay": "[3H]rauwolscine competition radioligand binding, membranes of clonal mammalian cell lines", "conditions": "50 mM Tris pH 7.4, 25° C., 2 hr, Cheng-Prusoff", "from_the_text": "as §1\n(§3) Measurement of compound affinities by competition radioligand binding: Affinities (Ki) for compounds were determined by [3H]rauwolscine competition binding using the same binding conditions as described above. The Ki values were calculated from IC50 values using the Cheng-Prusoff equation."}, "[5]": {"molecular_target": "T4, Hsα2A-AR (human α2A adrenergic receptor) (Homo sapiens, UniProt P08913)", "T4 construct": "expressed in transfected cells; membranes", "T4 sequence (P08913 whole entry)": "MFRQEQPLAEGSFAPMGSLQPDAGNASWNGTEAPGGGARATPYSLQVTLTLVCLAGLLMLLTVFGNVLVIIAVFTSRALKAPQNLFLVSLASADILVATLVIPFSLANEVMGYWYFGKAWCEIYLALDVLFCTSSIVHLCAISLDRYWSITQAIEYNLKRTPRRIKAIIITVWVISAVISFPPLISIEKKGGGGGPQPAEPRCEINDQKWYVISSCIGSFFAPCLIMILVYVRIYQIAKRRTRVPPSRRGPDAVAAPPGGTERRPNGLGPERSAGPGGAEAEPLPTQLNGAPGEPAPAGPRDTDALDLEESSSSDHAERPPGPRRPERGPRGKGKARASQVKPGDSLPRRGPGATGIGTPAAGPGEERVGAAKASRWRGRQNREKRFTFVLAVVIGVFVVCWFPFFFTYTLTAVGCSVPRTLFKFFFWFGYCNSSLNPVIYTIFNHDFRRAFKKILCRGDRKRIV", "assay": "[3H]rauwolscine competition radioligand binding, membranes of clonal mammalian cell lines", "conditions": "50 mM Tris pH 7.4, 25° C., 2 hr, Cheng-Prusoff", "from_the_text": "as §1, §3"}, "[6]": {"system": "Anopheles gambiae mosquito isoform A OctR (AgAOctR)", "assay": "OctR activation, change in intracellular calcium", "type": "cell-based", "conditions": "for selectivity Ki(Hsα2-AR)/EC50(OctR): AgAOctR over Homo sapien α2-AR subtypes", "from_the_text": "as §1, §2"}, "[7]": {"system": "Ixodes scapularis tick OctR (IsTOctR)", "assay": "OctR activation, change in intracellular calcium", "type": "cell-based", "from_the_text": "as §1, §2"}, "[8]": {"system": "IsTOctR (Ixodes octopamine receptor), cloned α-like OctR", "assay": "OctR activation: change in intracellular calcium (CALCIUM 6QR dye, FlexStation 3) in stably transfected mammalian cells", "type": "cell-based, Ixodes scapularis", "conditions": "agonist, read-out: IsTOctR (Ixodes octopamine receptor) EC50", "from_the_text": "as §1, §2"}, "[9]": {"molecular_target": "T2, human α2C adrenergic receptor (α2c-AR)", "assay": "Measurement of intracellular cAMP (cAMP-Glo)", "type": "cell-based, Homo sapien", "conditions": "in words; normalized to 1 μM forskolin; FIG. 8", "from_the_text": "as §1, with “Briefly, binding conditions were 50 mM Tris binding buffer pH 7.4 at 25° C. and an ice-cold wash buffer 10 mM Tris-HCl, pH 7.4).” left out, “Following the addition of membranes prepared from the clonal cell lines, samples were mixed and allowed 2 hr. to reach equilibrium before rapid filtration and washing through 0.3% PEI-treated GF/C filters.” left out, “The affinity (KD) for the radioligand for each receptor was determined in separate saturation isotherm binding experiments using the same binding conditions as describe above.” left out"}, "α2-ARs": {"system": "α2-ARs", "assay": "Functional profile at α2-ARs (preliminary studies)", "type": "cell-based, Homo sapien", "from_the_text": "as §1, with “Briefly, binding conditions were 50 mM Tris binding buffer pH 7.4 at 25° C. and an ice-cold wash buffer 10 mM Tris-HCl, pH 7.4).” left out, “Following the addition of membranes prepared from the clonal cell lines, samples were mixed and allowed 2 hr. to reach equilibrium before rapid filtration and washing through 0.3% PEI-treated GF/C filters.” left out, “The affinity (KD) for the radioligand for each receptor was determined in separate saturation isotherm binding experiments using the same binding conditions as describe above.” left out"}, "α-like OctRs": {"system": "α-like OctRs", "assay": "OctR activation, change in intracellular calcium (statements on OctRs in general)", "type": "cell-based", "conditions": "relative to fluorinated AZ1411", "from_the_text": "as §1, with “Briefly, binding conditions were 50 mM Tris binding buffer pH 7.4 at 25° C. and an ice-cold wash buffer 10 mM Tris-HCl, pH 7.4).” left out, “Following the addition of membranes prepared from the clonal cell lines, samples were mixed and allowed 2 hr. to reach equilibrium before rapid filtration and washing through 0.3% PEI-treated GF/C filters.” left out, “The affinity (KD) for the radioligand for each receptor was determined in separate saturation isotherm binding experiments using the same binding conditions as describe above.” left out"}},
  "data": [
    {"smiles": "C=C(c1cnc[nH]1)c1cccc(F)c1C", "note": "[AZ1411]", "values": [
      {"measurement": "EC50", "setting": "[1]", "result": "0.11 ± 0.058", "unit": "nM"},
      {"measurement": "EC50", "setting": "[2]", "result": 931, "unit": "nM"},
      {"measurement": "EC50", "setting": "[3]", "result": "81 ± 46", "unit": "nM"},
      {"measurement": "Ki", "setting": "[4]", "result": "3530 ± 1590", "unit": "nM"},
      {"measurement": "Ki", "setting": "[5]", "result": "494 ± 177", "unit": "nM"},
      {"measurement": "selectivity Ki(Hsα2-AR)/EC50(OctR)", "setting": "[6]", "result": "highly selective"},
      {"measurement": "selectivity Ki(Hsα2-AR)/EC50(OctR)", "setting": "[7]; Ixodes tick OctR over Homo sapien α2-AR subtypes", "result": "highly selective"},
      {"measurement": "EC50", "setting": "[8]", "result": "2.9 ± 1.3", "unit": "nM"},
      {"measurement": "efficacy (change in intracellular cyclic AMP)", "setting": "[9]", "result": "partial agonist"},
      {"measurement": "potency (change in intracellular cyclic AMP)", "setting": "[9]", "result": "low potency"}
    ]},
    {"smiles": "C=C(c1cnc[nH]1)c1cccc(Cl)c1C", "note": "[AZ1436]", "values": [
      {"measurement": "EC50", "setting": "[1]", "result": "0.025 ± 0.0019", "unit": "nM"},
      {"measurement": "functional mode at α2-ARs", "setting": "α2-ARs", "result": "likely an antagonist"},
      {"measurement": "selectivity Ki(Hsα2-AR)/EC50(OctR)", "setting": "[6]", "result": "highly selective"},
      {"measurement": "efficacy (full/partial agonist)", "setting": "[6]; in words, FIGS. 9-12", "result": "full agonist"},
      {"measurement": "potency (EC50)", "setting": "[6]; in words, FIGS. 9-12", "result": "potent"},
      {"measurement": "potency (EC50)", "setting": "[7]; in words, FIG. 9", "result": "potent"},
      {"measurement": "efficacy (full/partial agonist)", "setting": "[7]; in words, FIGS. 9, 11", "result": "full agonist"},
      {"measurement": "EC50", "setting": "[8]", "result": "1.8 ± 0.83", "unit": "nM"},
      {"measurement": "potency for OctRs compared with AZ1411", "setting": "α-like OctRs", "result": "2-4"}
    ]}
  ]
}
